Consider two molecules from US4769250A, “Antracycline antineoplastic agents encapsulated in phospholipid vesicle particles and methods for using same for tumor therapy” (priority 1987, dated 1988).

Each structure is given as a SMILES string.

The conditions of data set [1]: binding to distearoyl phosphatidylglycerol; read-out: binding constant; cited from earlier work.
The test system of data set [2] is P-1798 solid lymphosarcoma. The experiment in a line: single dose chemotherapeutic efficacy, intradermal P-1798 solid lymphosarcoma. It counts as in vivo, mice. To be noted: 20 mg/kg single dose. On the procedure:
In the first investigation, groups of 10 mice received free daunorubicin or daunorubicin-vesicles in 20 mg/kg single doses at three or four days following tumor implantation. Tumors were measured using calipers and the survival over time of treated and control mice was recorded. Controls consisted of injections of a 5% dextrose in water solution at 2 ml/20 gm doses.
Representative results of these investigations are shown in FIG. 5 for treatment commencing on day 3 after tumor implantation. Typically, with tumor metastasis, mice with tumors die within 14-17 days. […] The median life span of mice injected with daunorubicin-vesicles was 21 days.

Data set [3] deals with DNA. Conditions: binding to DNA; read-out: affinity for binding to DNA in a cell (converted); cited from earlier work.
Data set [4] can be described thus: toxicity determined by survival in tumor-bearing mice. It counts as in vivo.
For data set [5] the following is noted: children highly susceptible (Mosijezuk et al.); cited from earlier work.

On to `COc1cccc2c1C(=O)c1c(O)c3c(c(O)c1C2=O)C[C@@](O)(C(C)=O)C[C@@H]3O[C@H]1C[C@H](N)[C@H](O)[C@H](C)O1` [daunorubicin], for which the Kd in data set [1] is around 10 µM; in data set [3], around 0.5 µM. Further, the “inhibition of tumor growth vs untreated controls” value in data set [2] was “significant inhibition of tumor growth”. In data set [4] (10, 20 and 30 mg/kg), the “toxicity induced deaths by dose” value is recorded as “toxicity induced deaths occurred only for the high dose unencapsulated daunorubicin (30 mg/kg)”. The mortality in data set [4] (mouse, in vivo, 30 mg/kg, read-out: toxicity induced deaths) came out at 100%.
On to `COc1cccc2c1C(=O)c1c(O)c3c(c(O)c1C2=O)C[C@@](O)(C(=O)CO)C[C@@H]3O[C@H]1C[C@H](N)[C@H](O)[C@H](C)O1` [doxorubicin], for which, in data set [5], the cardiotoxicity entry is on record as “congestive heart failure”.
